Assay results reported in ChEMBL document CHEMBL1155491, “Acylurea connected straight chain hydroxamates as novel histone deacetylase inhibitors: Synthesis, SAR, and in vivo antitumor activity” (Bioorg Med Chem Lett, 2010).

Columns and labels:
Histone deacetylase 9 = Histone deacetylase 9 (Homo sapiens, UniProt Q9UKV0); experiment: Inhibition of HDAC9
[1] = target: T1, Polyamine deacetylase HDAC10 (Homo sapiens, UniProt Q969S8); experiment: Inhibition of HDAC10
T1 sequence (Q969S8 whole entry): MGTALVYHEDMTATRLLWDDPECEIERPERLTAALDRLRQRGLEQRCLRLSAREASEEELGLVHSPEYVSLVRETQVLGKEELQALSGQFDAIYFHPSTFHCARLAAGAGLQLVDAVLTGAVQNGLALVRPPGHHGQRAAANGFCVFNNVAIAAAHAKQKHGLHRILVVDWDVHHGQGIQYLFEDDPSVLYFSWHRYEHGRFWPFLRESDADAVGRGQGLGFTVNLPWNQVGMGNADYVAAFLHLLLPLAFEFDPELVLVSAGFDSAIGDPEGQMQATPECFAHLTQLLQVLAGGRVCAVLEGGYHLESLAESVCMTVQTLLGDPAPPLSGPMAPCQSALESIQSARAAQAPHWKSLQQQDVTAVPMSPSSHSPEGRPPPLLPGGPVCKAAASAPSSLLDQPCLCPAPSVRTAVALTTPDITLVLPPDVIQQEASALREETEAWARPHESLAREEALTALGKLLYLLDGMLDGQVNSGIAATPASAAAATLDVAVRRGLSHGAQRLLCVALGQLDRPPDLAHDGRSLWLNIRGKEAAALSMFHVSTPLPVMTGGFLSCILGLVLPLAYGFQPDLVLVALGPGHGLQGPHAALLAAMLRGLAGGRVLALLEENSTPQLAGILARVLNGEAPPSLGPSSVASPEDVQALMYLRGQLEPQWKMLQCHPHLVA

HCT-116 = experiment: Antiproliferative activity against human HCT116 cells; type: functional, cell-based
NCI-H522 = experiment: Antiproliferative activity against human NCI-H522 cells; type: functional, cell-based
Ramos = experiment: Antiproliferative activity against human Ramos cells; type: functional, cell-based
[2] = Volume of distribution at steady state in mouse at 10 mg/kg, iv; type: ADME, organism-based; design: dose 10 mg/kg, route intravenous; conditions: in vivo, read-out: Vdss
[3] = Elimination half life in mouse at 10 mg/kg, iv; type: ADME, organism-based; design: dose 10 mg/kg, route intravenous; conditions: in vivo, read-out: beta t1/2 (converted)
PC-3 = experiment: animal or person; type: functional, Homo sapiens; conditions: Mus musculus, PC-3, ip, route intraperitoneal, read-out: TGI
Mus musculus = experiment: Toxicity in human HCT116 cells xenografted BALB/c mouse at 200 mg/kg, po; type: organism-based, HCT-116; design: dose 200 mg/kg, route oral; conditions: in vivo
[4] = Oral bioavailability in mouse at 50 mg/kg, po; conditions: in vivo

Sequence of Histone deacetylase 9 (Q9UKV0 whole entry): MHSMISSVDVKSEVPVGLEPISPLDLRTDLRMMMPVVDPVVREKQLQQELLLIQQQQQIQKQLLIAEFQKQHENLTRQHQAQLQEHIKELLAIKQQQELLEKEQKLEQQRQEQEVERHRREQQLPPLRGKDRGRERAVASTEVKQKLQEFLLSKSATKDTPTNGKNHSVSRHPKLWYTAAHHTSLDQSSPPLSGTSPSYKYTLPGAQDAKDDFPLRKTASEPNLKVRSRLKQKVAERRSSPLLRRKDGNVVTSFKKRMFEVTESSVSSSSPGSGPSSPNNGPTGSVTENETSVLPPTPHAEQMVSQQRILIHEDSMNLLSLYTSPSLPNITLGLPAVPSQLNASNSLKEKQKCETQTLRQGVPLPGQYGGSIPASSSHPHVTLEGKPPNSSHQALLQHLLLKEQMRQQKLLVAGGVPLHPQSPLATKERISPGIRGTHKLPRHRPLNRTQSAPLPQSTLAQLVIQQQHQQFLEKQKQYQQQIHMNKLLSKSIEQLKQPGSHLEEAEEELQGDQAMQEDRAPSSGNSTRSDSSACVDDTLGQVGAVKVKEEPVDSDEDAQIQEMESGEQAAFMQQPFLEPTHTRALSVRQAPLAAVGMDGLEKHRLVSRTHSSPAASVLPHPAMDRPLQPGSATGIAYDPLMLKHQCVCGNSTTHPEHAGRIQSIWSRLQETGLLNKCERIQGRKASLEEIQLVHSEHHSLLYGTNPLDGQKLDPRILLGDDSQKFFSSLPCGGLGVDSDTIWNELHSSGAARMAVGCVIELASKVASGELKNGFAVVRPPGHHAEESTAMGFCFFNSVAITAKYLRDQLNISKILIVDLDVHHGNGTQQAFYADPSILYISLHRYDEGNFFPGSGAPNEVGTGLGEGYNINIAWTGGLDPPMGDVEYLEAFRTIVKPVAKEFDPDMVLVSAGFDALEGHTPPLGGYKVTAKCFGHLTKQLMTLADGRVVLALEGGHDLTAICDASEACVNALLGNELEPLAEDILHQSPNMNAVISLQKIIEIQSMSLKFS

For `O=C(CCCCCNC(=O)NC(=O)c1ccccc1)NO`, the Ki (Histone deacetylase 9) was 55 nM, the Ki [1] was 40 nM and the IC50 (HCT-116) was 1580 nM. It also gave an IC50 (NCI-H522) of 500 nM, an IC50 (Ramos) of 460 nM and a Vd [2] of 2.16 L/kg. The half-life [3] was 92.4 min, the inhibition in vivo at 160 mg/kg (PC-3) was 57% and the Activity (Mus musculus) was “Toxic”. The bioavailability [4] was 62%.
